Here are results for 20 compounds from ChEMBL document CHEMBL1795233, “The geranyl-modified tryptophan residue is crucial for ComXRO-E-2 pheromone biological activity” (Bioorg Med Chem Lett, 2011).

In experiment [1] the test system is Bacillus subtilis. Kind of experiment: Effect on quorum sensing-mediated genetic competence in Bacillus subtilis expressing srfA-lacZ fusion assessed as maximum activity after 5 hrs by beta-galactosidase assay relative to ComXRO-E-2 pheromone.
Experiment [2] relates to Bacillus subtilis. Kind of experiment: Effect on quorum sensing-mediated genetic competence in Bacillus subtilis expressing srfA-lacZ fusion assessed as concentration required to show same activity at EC25 of ComXRO-E-2 pheromone after 5 hrs by beta-galactosidase assay.
Experiment [3] in a line: Effect on quorum sensing-mediated genetic competence in Bacillus subtilis expressing srfA-lacZ fusion assessed as concentration required to show same activity at EC50 of ComXRO-E-2 pheromone after 5 hrs by beta-galactosidase assay.

In general, Emax refers to the maximal effect, on the per cent scale that the assay sets. Usually EC25 stands for the point of the concentration-response curve where the effect stands at 25%. A word on the EC50: it is the concentration giving half of the maximal effect.

*1 amine or outer side, *2 acyl side, *3 side chain or, on linkers, in order; H or OH if unused. Where a SMILES comes first, the peptide text is derived from it. [ ]: non-standard residue; d: D form. X2 = CC(C)=CCC/C(C)=C/CC/C(C)=C/C[C@]12C[C@@H](C(=O)[*:2])N([*:1])[C@H]1Nc1ccccc12; X4 = CC(C)=CCC/C(C)=C/C[C@]12C[C@@H](C(=O)[*:2])N([*:1])[C@H]1Nc1ccccc12; X1 = C/C(=C\C[C@]12C[C@@H](C(=O)[*:2])N([*:1])[C@H]1Nc1ccccc12)CCCC(C)C; X3 = CC(C)=CC[C@]12C[C@@H](C(=O)[*:2])N([*:1])[C@H]1Nc1ccccc12

Regarding `CC(C)=CCC/C(C)=C/C[C@]12C[C@@H](C(=O)N[C@@H](CCC(=O)O)C(=O)O)N(C(=O)[C@H](C)N)[C@H]1Nc1ccccc12`, the Emax in experiment [1] turned out to be 20%. The EC25 in experiment [2] was greater than 0.3 µM. Moreover, the EC50 in experiment [3] is greater than 0.3 µM.

On to `CC[C@H](C)[C@H](NC(=O)CN)C(=O)N[C@@H](Cc1ccccc1)C(=O)N1[C@H]2Nc3ccccc3[C@@]2(C/C=C(\C)CCCC(C)C)C[C@H]1C(=O)N[C@@H](CCC(=O)O)C(=O)N[C@@H](CCC(N)=O)C(=O)O` (H-GIF[X1]EQ-OH), for which the Emax in experiment [1] was found to be 75%. Moreover, the EC25 in experiment [2] is 0.002 µM. The EC50 in experiment [3] stood at 0.02 µM.

In the case of `CC(C)=CCC/C(C)=C/C[C@]12C[C@@H](C(=O)N[C@@H](C)C(=O)O)N(C(=O)[C@@H](N)CC(N)=O)[C@H]1Nc1ccccc12`, the Emax in experiment [1] amounted to 5%. In addition, the EC25 in experiment [2] was greater than 0.3 µM. Moreover, in experiment [3], the EC50 is greater than 0.3 µM.

On to `CC(C)=CCC/C(C)=C/C[C@]12C[C@@H](C(=O)N[C@@H](C)C(=O)O)N(C(=O)C(N)Cc3ccccc3)[C@H]1Nc1ccccc12` (single isomer, unassigned), for which the Emax in experiment [1] worked out at 70%. Also, in experiment [2], the EC25 was 0.003 µM. Also, in experiment [3], the EC50 was 0.06 µM.

Turning to `CC(C)=CCC/C(C)=C/C[C@]12C[C@@H](C(=O)NCC(=O)O)N(C(=O)C(N)Cc3ccccc3)[C@H]1Nc1ccccc12` (single isomer, unassigned), in experiment [1], the Emax is 40%. Moreover, in experiment [2], the concentration for an effect of 25% (EC25) was determined as 0.2 µM. Moreover, the EC50 in experiment [3] is greater than 0.3 µM.

Consider `CC(C)=CCC/C(C)=C/C[C@]12C[C@H]3C(=O)N[C@@H](Cc4ccccc4)C(=O)N3[C@H]1Nc1ccccc12`, for which the Emax in experiment [1] was 5%. In addition, the concentration for an effect of 25% (EC25) in experiment [2] is greater than 0.3 µM. In addition, the EC50 in experiment [3] was greater than 0.3 µM.

On to `CC(C)=CCC/C(C)=C/C[C@]12C[C@@H](C(N)=O)N(C(=O)[C@@H](N)Cc3ccccc3)[C@H]1Nc1ccccc12`, for which the Emax in experiment [1] was 35%. For the same compound, the concentration for an effect of 25% (EC25) in experiment [2] came to 0.05 µM. In addition, in experiment [3], the EC50 was greater than 0.3 µM.

For `CC[C@H](C)[C@H](NC(=O)CN)C(=O)N[C@@H](Cc1ccccc1)C(=O)N1[C@H]2Nc3ccccc3[C@@]2(C/C=C(\C)CCC=C(C)C)C[C@H]1C(=O)N[C@@H](CCC(=O)O)C(=O)N[C@@H](CCC(N)=O)C(=O)O` (H-GIF[X4]EQ-OH), the 25% effect concentration (EC25) in experiment [2] was determined as 0.0003 µM. Also, in experiment [3], the EC50 was 0.001 µM.

Consider `CC[C@H](C)[C@H](NC(=O)CN)C(=O)N[C@@H](Cc1ccccc1)C(=O)N1[C@H]2Nc3ccccc3[C@@]2(C/C=C(\C)CC/C=C(\C)CCC=C(C)C)C[C@H]1C(=O)N[C@@H](CCC(=O)O)C(=O)N[C@@H](CCC(N)=O)C(=O)O` (H-GIF[X2]EQ-OH), for which, in experiment [1], the Emax is 35%. Also, the 25% effect concentration (EC25) in experiment [2] is 0.02 µM. Besides, in experiment [3], the EC50 was greater than 0.3 µM.

As to `CC(C)=CCC/C(C)=C/C[C@]12C[C@@H](C(=O)N[C@@H](C)C(=O)O)N(C(=O)[C@@H](N)CC(C)C)[C@H]1Nc1ccccc12`, the Emax in experiment [1] was 20%. In addition, the EC25 in experiment [2] is greater than 0.3 µM. Besides, the EC50 in experiment [3] was greater than 0.3 µM.

For `CC(C)=CCC/C(C)=C/C[C@]12C[C@@H](C(=O)N[C@@H](C)C(=O)O)N(C(=O)[C@@H]3CCCN3)[C@H]1Nc1ccccc12`, in experiment [1], the Emax stood at 5%. Also, the concentration for an effect of 25% (EC25) in experiment [2] was greater than 0.3 µM. Also, the EC50 in experiment [3] is greater than 0.3 µM.

`CC(C)=CCC/C(C)=C/C[C@]12C[C@@H](C(=O)N[C@@H](C)C(=O)O)N(C(=O)[C@@H](N)Cc3cc4ccccc4[nH]3)[C@H]1Nc1ccccc12`: the Emax in experiment [1] came out at 15%. Moreover, in experiment [2], the EC25 was greater than 0.3 µM. Moreover, in experiment [3], the EC50 was greater than 0.3 µM.

`CC[C@H](C)[C@H](NC(=O)CN)C(=O)N[C@@H](Cc1ccccc1)C(=O)N1[C@H]2Nc3ccccc3[C@@]2(CC=C(C)C)C[C@H]1C(=O)N[C@@H](CCC(=O)O)C(=O)N[C@@H](CCC(N)=O)C(=O)O` (H-GIF[X3]EQ-OH): the maximal effect (Emax) in experiment [1] came out at 0%. Further, the EC25 in experiment [2] is greater than 0.3 µM. In addition, the EC50 in experiment [3] was greater than 0.3 µM.

For the compound `CC(C)=CCC/C(C)=C/C[C@]12C[C@@H](C(=O)N[C@@H](C)C(=O)O)N(C(=O)[C@H](C)N)[C@H]1Nc1ccccc12`, the Emax in experiment [1] was 15%. For the same compound, the EC25 in experiment [2] is greater than 0.3 µM. Besides, the EC50 in experiment [3] was greater than 0.3 µM.

As to `CC(C)=CCC/C(C)=C/C[C@]12C[C@@H](C(=O)N[C@@H](CCC(=O)O)C(=O)O)N(C(=O)C(N)Cc3ccccc3)[C@H]1Nc1ccccc12` (single isomer, unassigned), the Emax in experiment [1] worked out at 60%. The EC25 in experiment [2] worked out at 0.008 µM. Further, the half-maximal effective concentration (EC50) in experiment [3] worked out at 0.02 µM.

As to `COC(=O)[C@@H]1C[C@]2(C/C=C(\C)CCC=C(C)C)c3ccccc3N[C@@H]2N1C(=O)[C@H](Cc1ccccc1)NC(C)=O`, the Emax in experiment [1] came to 10%. Further, in experiment [2], the EC25 is greater than 0.3 µM. In addition, the EC50 in experiment [3] was greater than 0.3 µM.

Consider `CC(C)=CCC/C(C)=C/C[C@]12C[C@@H](C(=O)N[C@@H](C)C(=O)O)N(C(=O)[C@@H](N)Cc3ccc(O)cc3)[C@H]1Nc1ccccc12`, for which the Emax in experiment [1] came out at 25%. Further, in experiment [2], the 25% effect concentration (EC25) turned out to be 0.1 µM. The EC50 in experiment [3] was greater than 0.3 µM.

Regarding `CC[C@H](C)[C@H](N)C(=O)N1[C@H]2Nc3ccccc3[C@@]2(C/C=C(\C)CCC=C(C)C)C[C@H]1C(=O)N[C@@H](C)C(=O)O`, the Emax in experiment [1] was 35%. Further, the EC25 in experiment [2] amounted to 0.02 µM. Further, the EC50 in experiment [3] was greater than 0.3 µM.

With `CC(C)=CCC/C(C)=C/C[C@]12C[C@@H](C(N)=O)N(C(=O)c3ccccc3)[C@H]1Nc1ccccc12`, the Emax in experiment [1] was determined as 0%. Also, the EC25 in experiment [2] was greater than 0.3 µM. For the same compound, the EC50 in experiment [3] is greater than 0.3 µM.

As for `CC[C@H](C)[C@H](NC(=O)CN)C(=O)N[C@@H](Cc1ccccc1)C(=O)N1[C@H]2Nc3ccccc3[C@@]2(CCC(C)CCCC(C)C)C[C@H]1C(=O)N[C@@H](CCC(=O)O)C(=O)N[C@@H](CCC(N)=O)C(=O)O` (mixture of isomers), the Emax in experiment [1] is 40%. The EC25 in experiment [2] is 0.2 µM. Moreover, the EC50 in experiment [3] is greater than 0.3 µM.
